Measured values as given in patent publication US20220218671A1 (BOEHRINGER INGELHEIM VETMEDICA GMBH, priority 2019, published 2022).

Assays:
[1] = tested on: client-owned dogs with persistent pathologic renal proteinuria due to CKD; experiment: Prospective, block-randomized, double-blind clinical trial of telmisartan versus enalapril; UPC measurement (phases I-III); type: in vivo, dog; conditions: for Average of UPC change day 30 / Average of UPC change day 60 / Average of UPC change day 90: change from baseline; for Average of UPC change day 30: day 30, all dogs; for Average of UPC change day 60: day 60, all dogs; for Average of UPC change day 60 / Average of UPC change day 90: up-titration allowed; for Average of UPC change day 90: day 90, all dogs; for proportion of dogs that experienced 50% reduction in UPC at day 30: telmisartan 1 mg/kg PO q 24 h, enalapril 0.5 mg/kg PO q 12 h, 16/20 versus 5/17 dogs, P=0.003; for Average of UPC change in dogs with added drug at Day 90, day 120: the other drug additionally administered between day 90 and day 120; for Average of percent UPC change day 30 / Average of percent UPC change day 60 / Average of percent UPC change day 90 / Average of percent UPC change day 120: percent change from baseline; for Average of percent UPC change day 120: the other drug (telmisartan or enalapril) additionally administered between day 90 and day 120
Description: Experimental Methods and Design. A prospective, block-randomized, double-blind clinical trial has been carried out. Fifty-four client-owned dogs with persistent pathologic renal proteinuria have been recruited over a 2-year period.
Animals. Azotemic and non-azotemic dogs (N=54) with hypertensive and non-hypertensive CKD have been recruited prospectively from patients presented to the hospital. Dogs included as cases will have confirmed persistent pathologic renal proteinuria due to CKD; in order to be classified as such, fulfillment of the criteria described below will be required.
Inclusion criteria. […] Abdominal ultrasound findings consistent with CKD (bilaterally small, irregular kidneys) and absence of renal neoplasia have also been documented.
Exclusion criteria. […] Dogs with suspected or confirmed hyper-adrenocorticism and diabetes mellitus have been included if their disease is considered well controlled with medical therapy.
Patient grouping for block randomization: Once included in the study and based on the presence/degree of azotemia, dogs have been grouped according to the International Renal Interest Society (IRIS) classification scheme for CKD. Those classified as IRIS stages 2-4 (serum creatinine ≥1.4 mg/dL with inappropriately dilute urine [USG<1.030]) have been considered azotemic (AZ), and those classified as IRIS stage 1 (creatinine <1.4 mg/dL) have been considered non-azotemic (non-AZ). Within each of these two groups, dogs will then be stratified according to IRIS recommendations for arterial pressure (AP) substaging. According to this scheme, dogs with persistent average indirect arterial systolic BP<150 mm Hg will be classified as AP0 (minimal risk for target organ damage). Those with persistent average indirect arterial systolic BP150 mm Hg have been classified as AP1-3 (at risk for target organ damage). Four groups will thus be identified:
Baseline. On inclusion (day 0), all owners have been required to read/sign a form consenting to their pets' participation in the study. The following baseline data have been collected for each case: full physical examination (performed by one of the study investigators), fundic examination, blood pressure measurement, serum chemistry panel, urinalysis, abdominal ultrasound, UPC and urine culture. The results of screening tests, if performed within 2 weeks of inclusion in the study, may be used as baseline information. Baseline UPC has been defined as the average of two measurements, taken 2 weeks apart, prior to enrollment.
ARB/ACEi therapy. […] Owners have been provided with appropriate contact numbers in the event of an emergency.
Antihypertensive/other therapy. For dogs that are classified as AP3 (SBP180 mmHg; 200 mmHg in sighthounds), a calcium channel blocker (CCB; amlodipine, 0.1 mg/kg PO q 24 hours) has been administered contemporaneously. […] All dogs have been started or maintained on a commercially available diet formulated to be low in phosphorus and protein, for at least 1 month prior to enrollment.
Monitoring: The monitoring protocol followed the recommendations of the IRIS Canine GN Study Group Standard Therapy Subgroup. All dogs have been rechecked on day 7, at which time physical examination, SBP, serum creatinine (sCr) and serum potassium (K) have been evaluated. An increase in sCr of >30% compared to baseline or identification of moderate/severe hyperkalemia (serum K>6.5 mmol/L) or systolic hypotension (SBP<120) has prompt the investigator unmasking and removal of the patient from the study. For dogs in which average SBP of approximately 180 mm Hg was reliably identified (i.e. dogs classified as AP3), amlodipine will be up-titrated to 0.1 mg/kg PO BID. Thereafter, dogs classified as AP3 have been rechecked at 7-day intervals to ensure efficacy of therapy with adjustment of antihypertensive therapy.

[2] = tested on: naturally occurring proteinuria; conditions: cited from earlier work
[3] = dogs without added drug at day 90

**Q.** With `CCOC(=O)[C@H](CCc1ccccc1)N[C@@H](C)C(=O)N1CCC[C@H]1C(=O)O` [Enalapril, enalapril] as the compound, how does the “Average of UPC change day 30” value [1] read?
**A.** −1.075

**Q.** And the “Average of UPC change day 60” value [1]?
**A.** −1.260

**Q.** What about the “Average of UPC change day 90” value [1] of the same compound?
**A.** −1.194

**Q.** What about the “proportion of dogs that experienced 50% reduction in UPC at day 30” value [1] of the same compound?
**A.** 29.4%

**Q.** And the “Average of UPC change in dogs with added drug at Day 90, day 30” value [1]?
**A.** −0.30

**Q.** And the “Average of UPC change in dogs with added drug at Day 90, day 60” value [1]?
**A.** −0.79

**Q.** What about the “Average of UPC change in dogs with added drug at Day 90, day 90” value [1] of the same compound?
**A.** −1.05

**Q.** And the “Average of UPC change in dogs with added drug at Day 90, day 120” value ([1]; day 120)?
**A.** −2.97

**Q.** What about the “Average of UPC change in dogs without added drug at Day 90, day 30” value [1, 3] of the same compound?
**A.** −0.71

**Q.** And the “Average of UPC change in dogs without added drug at Day 90, day 60” value [1, 3]?
**A.** −1.02

**Q.** What about the “Average of UPC change in dogs without added drug at Day 90, day 90” value [1, 3] of the same compound?
**A.** −0.68

**Q.** What about the “Average of UPC change in dogs without added drug at Day 90, day 120” value ([1]; dogs without added drug at day 90, day 120) of the same compound?
**A.** −0.92

**Q.** And the “Average of percent UPC change day 30” value [1]?
**A.** −27.34%

**Q.** What about the “Average of percent UPC change day 60” value [1] of the same compound?
**A.** −37.56%

**Q.** And the “Average of percent UPC change day 90” value [1]?
**A.** −30.57%

**Q.** And the “Average of percent UPC change day 120” value ([1]; day 120)?
**A.** −75.14^1%

**Q.** What about the “subjects experiencing an increase in proteinuria despite therapy” value ([2]; 3/14 subjects) of the same compound?
**A.** 22%

**Q.** And the “subjects with clinically significant (i.e., 50%) reduction in proteinuria” value ([2]; 9/14 subjects)?
**A.** 64%

**Q.** With `CCCc1nc2c(C)cc(-c3nc4ccccc4n3C)cc2n1Cc1ccc(-c2ccccc2C(=O)O)cc1` [Telmisartan, telmisartan] as the compound, how does the “Average of UPC change day 30” value [1] read?
**A.** −2,516

**Q.** And the “Average of UPC change day 60” value [1]?
**A.** −3.769

**Q.** And the “Average of UPC change day 90” value [1]?
**A.** −4.341

**Q.** What about the “proportion of dogs that experienced 50% reduction in UPC at day 30” value [1] of the same compound?
**A.** 80%

**Q.** And the “Average of UPC change in dogs with added drug at Day 90, day 30” value [1]?
**A.** −4.20

**Q.** What about the “Average of UPC change in dogs with added drug at Day 90, day 60” value [1] of the same compound?
**A.** −4.83

**Q.** What about the “Average of UPC change in dogs with added drug at Day 90, day 90” value [1] of the same compound?
**A.** −4.83

**Q.** What about the “Average of UPC change in dogs with added drug at Day 90, day 120” value ([1]; day 120) of the same compound?
**A.** −5.84

**Q.** What about the “Average of UPC change in dogs without added drug at Day 90, day 30” value [1, 3] of the same compound?
**A.** −1.82

**Q.** What about the “Average of UPC change in dogs without added drug at Day 90, day 60” value [1, 3] of the same compound?
**A.** −2.81

**Q.** What about the “Average of UPC change in dogs without added drug at Day 90, day 90” value [1, 3] of the same compound?
**A.** −2.01

**Q.** And the “Average of percent UPC change day 30” value [1]?
**A.** −57.01%

**Q.** And the “Average of percent UPC change day 60” value [1]?
**A.** −65.87%

**Q.** And the “Average of percent UPC change day 90” value [1]?
**A.** −68.79%

**Q.** And the “Average of percent UPC change day 120” value ([1]; day 120)?
**A.** −76.70^2%
